Data on 1 compound can be found in patent US20120214684A1, “COMPOSITIONS AND METHODS FOR DETECTING AND TREATING PROSTATE CARCINOMA” (UNIVERSITY OF FLORIDA RESEARCH FOUNDATION, priority 2009, published 2012).

One experiment has as its system Sox2, Oct3/4, Nanog. The experiment can be described thus: Western blot of stem cell markers after Docetaxel treatment. It counts as cell-based, human. As to conditions: 1 nM, 2 nM, 5 nM, 10 nM docetaxel. The procedure:
(§1) FIG. 12B is a graph depicting the cell viability of prostate cancer stem cells (CSC) and non-stem prostate cancer cells (Non-CSC) observed for up to 72 hours after treatment with Docetaxel. Cell viability was determined by quantifying the surviving prostate cancer stem cells (CSC) and non-stem prostate cancer cells (Non-CSC) in the samples exposed to 5 nM Docetaxel at Day 0, 1, 2 and 3.
(§2) Prostate cancer stem cells from metastatic prostate cancer cell lines were examined for their sensitivity to conventional cancer treatments (e.g., radiation and chemotherapy). […] Metastatic prostate stem cell lines were also treated with Docetaxel, a frontline treatment for drug-resistant cancer cells.
For the experiments described above, Western-blot analysis was performed by standard methods on isolated cancer stem cells and non-cancer stem cells. Whole cell lysates were prepared in lysis buffer with a commercially available protease inhibitor cocktail (Pierce) at 4° C., followed by centrifugation at 13,000×g for 10 min. Extracts were separated by SDS/PAGE and transferred to nitrocellulose membranes. The membranes were blocked with 5% nonfat dry milk in 20 mM Tris-HCl (pH 7.5), 500 mM sodium chloride, and 0.05% Tween 20 for 2 h and then incubated with commercially available primary antibodies in the same buffer with 1% BSA (fraction V). […]
In general terms: A western blot detects proteins with antibodies after separation by electrophoresis.

Experiment [1] has as its system prostate cancer stem cells (CSC) and non-stem prostate cancer cells (Non-CSC). In words: Cell viability of CSC and Non-CSC after Docetaxel. It counts as cell-based, human. Particulars: 5 nM Docetaxel, Day 0, 1, 2 and 3. The procedure: as §1, §2

As to `CC(=O)O[C@@]12CO[C@@H]1C[C@H](O)[C@@]1(C)C(=O)[C@H](O)C3=C(C)[C@@H](OC(=O)[C@H](O)[C@@H](NC(=O)OC(C)(C)C)c4ccccc4)C[C@@](O)([C@@H](OC(=O)c4ccccc4)[C@H]21)C3(C)C` [Docetaxel], in the experiment on Sox2, Oct3/4, Nanog, the “detection of Sox2, Oct 3/4 and Nanog expression” value is “increased detection of Sox2, Oct 3/4 and Nanog expression with increasing dose”. In addition, the “cell viability of prostate cancer stem cells vs non-stem prostate cancer cells” value in experiment [1] is “more cell viability compared to non-stem prostate cancer cells”.
